We go through three molecules from patent US7811760B2, “Vector and method for detecting the change in transcription amount” (priority 2006, dated 2010).

The experiment concerns ligand-dependent transcription factors (AhR, ER, and AR). The experiment can be described thus: Reporter gene (luciferase) assay in Neuro2a cells carrying PGV-THp03 (SEQ ID No: 2). The format is cell-based, mouse. The note with it: for luciferase activity increase: 30 hours, PGV-THp03, AhR-introduced Neuro2a. As for the experimental part: A vector (PGV-THp03) containing the upstream region (SEQ ID No: 2) ranging from about −300 to 0 position of the TH gene-coding region, which was prepared in Example 4, was used. Neuro2a was used as the cell.
Two kinds of vectors, pcDNA4-rAhR (Example 1) and pcDNA4/V5-His/lacZ (Invitrogen), were introduced into Neuro2a, together with PGV-THp03. pcDNA4-rAhR was introduced for constitutive expression of the SD-line rat AhR gene (SEQ ID No: 10) in the cell, and pcDNA4/V5-His/lacZ was introduced for normalization of the vector transfection efficiency.
The vectors were introduced into the cell by using LIPOFECTAMINE 2000 (Invitrogen). The cell was cultured on a 24-well plate, and the operation was performed according to the manual of Invitrogen. A total of […] of vectors (0.4 μg of PGV-THp03, 0.2 μg of pcDNA4-rAhR, and 0.2 μg of pcDNA4/V5-His/lacZ) suspended in 50 μl of OPTI-MEM medium and 2 μl of LIPOFECTAMINE 2000 suspended in 50 μl of OPTI-MEM medium were mixed, and incubated at room temperature for 20 minutes to form nucleic acid/LIPOFECTAMINE 2000 complex. The obtained suspension containing the complex was added to Neuro2a cell culture, which has been previously cultured overnight in 500 μl of DF1:1 medium (containing 10% fetal calf serum) (0.8×10^5 cells were seeded on previous day), to allow incorporation of the vectors into the cell. The cell was cultured additionally for 24 hours after transfection, for the purpose of improvement in vector incorporation efficiency and expression of the protein derived from the introduced vectors.
As the test substances, vinclozolin (10 μM), dimethyl phthalate (10 μM), benzopyrene (1 μM), and dioxin (TCDD) (10 nM) were used. After the transfection and the additional incubation for 24 hours, the medium was replaced with a fresh medium containing any one of the test substances, and the cell was cultured additionally for 30 hours. After 30 hours, the medium was removed from the 24-well plate, and the cell was washed with phosphate buffer twice. 100 μl of a protein extraction solution (manufactured by TOYO B-NET) was added to each well, and the cell suspension was stirred gently at room temperature for 15 minutes and then frozen at −80° C. The frozen solution was thawed at room temperature, and the resulting solution was recovered in a tube and diluted ten times with a protein extraction reagent containing 1 mg/ml bovine serum albumin luciferase and β-galactosidase activities in the diluted solution were measured, and the expression amount of the reporter gene was calculated as a relative luminescence intensity per 1 ng of β-galactosidase per second (RLU/sec/ng β-galactosidase).
(A reporter such as luciferase makes a cellular process visible.)

The structures appear in SMILES notation.

On to `C=CC1(C)OC(=O)N(c2cc(Cl)cc(Cl)c2)C1=O` (stereo not shown) [vinclozolin], for which, under “10 μM”, the luciferase activity increase entry is “approximately 1.3 times”. Further, the “change in luciferase activity” value (10 μM, PGV-THp03, cell with no AhR introduced) is reported as “no change in luciferase activity”.
Consider `c1ccc2c(c1)c1cccc3ccc4cccc2c4c31` [benzopyrene], for which the luciferase activity increase result (1 μM) is “approximately 1.3 times”.
As for `COC(=O)c1ccccc1C(=O)OC` [Dimethyl phthalate, dimethyl phthalate], the luciferase activity increase entry (10 μM) is “approximately 1.2 times”.
